This is an account of results in patent US8470859B2, “Iminopyridine derivative and use thereof” (Takeda Pharmaceutical Company Limited, priority 2006, dated 2013).

pIC50: −log10 of the molar value. Where a name gives a salt, the structure may show the parent alone. Read-outs that look alike come from different tables or passages of the source.

The target of experiment [1] is T1, human adrenaline α1D receptor (Homo sapiens, UniProt P25100).
T1 construct: expressed in transfected cells; membrane fraction used
T1 sequence (P25100 1-572): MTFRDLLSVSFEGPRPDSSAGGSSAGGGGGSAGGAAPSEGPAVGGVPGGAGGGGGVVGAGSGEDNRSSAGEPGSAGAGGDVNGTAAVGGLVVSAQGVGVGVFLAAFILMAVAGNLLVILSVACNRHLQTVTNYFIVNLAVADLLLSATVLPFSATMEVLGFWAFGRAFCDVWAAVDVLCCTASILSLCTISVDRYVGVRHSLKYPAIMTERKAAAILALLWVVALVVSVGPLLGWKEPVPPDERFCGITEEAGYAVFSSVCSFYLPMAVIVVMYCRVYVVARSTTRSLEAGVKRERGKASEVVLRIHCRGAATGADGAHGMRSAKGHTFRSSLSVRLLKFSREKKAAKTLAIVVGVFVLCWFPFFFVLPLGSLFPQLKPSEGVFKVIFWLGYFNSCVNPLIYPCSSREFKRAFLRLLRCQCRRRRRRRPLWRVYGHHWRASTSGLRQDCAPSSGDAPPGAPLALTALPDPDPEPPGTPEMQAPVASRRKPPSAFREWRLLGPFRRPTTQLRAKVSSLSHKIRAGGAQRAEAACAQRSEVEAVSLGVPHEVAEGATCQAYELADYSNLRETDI
In words: Measurement of α1D receptor binding inhibitory activity ([3H]prazosin binding to membrane fraction of CHO-K1 cells expressing the receptor). The conditions noted are these: read-out: binding inhibitory rate (%) (α1D receptor binding inhibitory rate at 1 μM). As for the experimental part: Measurement of α1D Receptor Binding Inhibitory Activity
Genetic manipulation methods described below are based on the methods described in Maniatis et al., Molecular Cloning, Cold Spring Harbor Laboratory, 1989, the protocol appended to a reagent and the like. • (i) Preparation of Human Adrenaline α1D Receptor Expression Plasmid
Adrenaline α1D receptor gene was cloned from human […] CDNA by the PCR method. PCR reaction was performed by Gene Amp PCR System 9700 (Applied Biosystems) with […] each of the primer set 5′-[…]-3′ [SEQ ID NO: 1] and 5′-[…]-3′ [SEQ ID NO: 2] prepared in reference to the base sequence of the adrenaline α1D receptor gene reported by DEBRA A. et al. (J. Pharamacol. Exp. Ter., 272, 134-142 (1995)), 200 ng of human brain hippocampus cDNA library (Takara Shuzo Co., Ltd.) as a template and TaKaRa LA-Taq DNA Polymerase (Takara Shuzo Co., Ltd.) (reaction conditions: 45 cycles of 94° C. for 15 sec, 68° C. for 3.5 min).
The PCR fragment obtained above was digested with restriction enzymes NheI (Takara Shuzo Co., Ltd.) and Kpn I (Takara Shuzo Co., Ltd.) and applied to agarose gel electrophoresis to recover DNA fragments. The DNA fragments was ligated with animal cell expression plasmid, pcDNA3.1/Zeo (Invitrogen) digested with NheI and Kpn I, by DNA Ligation Kit Ver.2 (Takara Shuzo Co., Ltd.), and transformed the competent cells of Escherichia coli JM109 to obtain plasmid, pcDNA3. 1/Zeo-Adreα1D. • (ii) Introduction of Human Adrenaline α1D Receptor Expression Plasmid into CHO-K1 Cells and Preparation of Membrane Fraction
CHO-K1 cells passage cultured in HmF12 medium (Invitrogen) containing 10% fetal bovine serum (TRACE SCIENCETIFIC) in a 150 cm^2 culture flask (Corning Coaster) were detached with 0.5 g/L trypsin-0.2 g/L EDTA (Invitrogen), and the cells were washed with D-PBS(−) (Invitrogen) and centrifuged (1000 rpm, 5 min). Then, using Gene Pulser II (BioRad), DNA was introduced into the cells under the following conditions. 1×10^7 cells suspended in D-PBS(−) (700 μl) and 10 μg of pcDNA3.1/Zeo-Adreα1D were added in a 0.4 cm gap cuvette (BioRad), and electroporation was performed under voltage 0.25 kV, capacitance 960 μF. The cells were cultured in HamF12 medium containing 10% fetal bovine serum and 250 μg/mL Zeocin (Invitrogen) and the Zeocin resistance clones were selected.
Plurality of Zeocin resistance clones were selected and cultured in a cell culture flask (150 cm^2) until semiconfluent, and the cellular membrane fraction was prepared as follows.
The semiconfluent cells were detached with 0.02% EDTA containing D-PBS(−) and recovered by centrifugation. The cells were suspended in membrane preparation buffer (10 mM NaHCO3 pH 7.4, protease inhibitor cocktail (Roche)) and disrupted by 3 times of treatment in a polytron homogenizer (model PT-3100, KINEMATICA AG) at 20000 rpm for 20 seconds. After disruption, the cells were centrifuged at 2000 rpm for 10 min and the supernatant containing membrane fractions was obtained. The supernatant was centrifuged using an ultracentrifuge (model L8-70M, rotor 70 Ti, Beckman Instruments) at 30000 rpm for 1 hr to obtain a precipitate containing membrane fractions. The obtained membrane fraction of each clone was subjected to the binding experiment shown below.
The membrane fraction (20 μg/well) [^3H] prazosin (2.5 nM, PerkinElmer Lifescience), as a ligand, were diluted with a binding assay buffer (50 mM Tris-HCl, 10 mM MgCl2, 0.5% BSA, protease inhibitor cocktail pH 7.5) and added to a 96 well microplate, and reacted at room temperature for 1 hr. For the measurement of non-specific binding, phentolamine (Sigma) was further added to 10 μM. Then, the reaction mixture was filtered and transferred to unifilter GF/C (PerkinElmer Lifescience) by using a cell harvester (PerkinElmer Lifescience). The filter was washed 3 times with ice-cooled 50 mM Tris buffer (pH 7.5). […]

For experiment [2], the system named is isolated bladder muscle of BOO model rat. Put plainly: Effect of various drugs on α1 receptor stimulation-induced contraction of isolated bladder muscle of bladder outlet obstruction (BOO) model rat. The conditions noted are these: phenylephrine 3 μmol/L; for pIC50: Rattus norvegicus, 0.5 h, concentration inhibiting the average tension by 50%, read-out: Inhibitory effect on phenylephrine-induced contraction IC50 (average method); for pIC50 / Inhibitory effect on phenylephrine-induced contraction IC30 (stddev method): cumulative treatment, 3 concentrations, 30 min intervals; for Inhibitory effect on phenylephrine-induced contraction IC30 (stddev method): concentration inhibiting the sustained, rhythmic contractile responses by 30%. As for the experimental part: Effect of Various Drugs on α1 Receptor Stimulation-Induced Contraction of Isolated Bladder Muscle of Bladder Outlet Obstruction (BOO) Model Rat
• (i) Seven-week-old male Wistar rats (CLEA Japan, Inc., Tokyo) were used. BOO rat was prepared according to publications (Hashimoto T, Nagabukuro H and Doi T: Effects of the selective acetylcholinesterase inhibitor TAK-802 on the voiding behavior and bladder mass increase in rats with partial bladder outlet obstruction. J Urol. 174: 1137-41., 2005.). After pentobarbital (50 mg/kg i.p., Dainippon Sumitomo Pharma Co., Ltd., Osaka) anesthesia, a lower middle abdominal incision was made to expose the bladder. The prostate was detached, the urethra was ligated along with a glass rod having an outer diameter of 1.2 mm, and the glass rod was removed to prepare partial obstruction of the urethra. After the surgery, the abdomen was sutured, and penicillin (2000 IU/rat, penicillin G potassium, MEIJI SEIKA KAISHA, LTD., Tokyo) was subcutaneously administered. An animal after 2 to 4 weeks from obstruction surgery was used. • (ii) Contractile Responses of Isolated Bladder Muscle (1) Preparation of Bladder Muscle Specimen
BOO model rat was sacrificed by decaptation, and the bladder was isolated. Muscle strips (length 7-10 mm, width about 3 mm) in the longitudinal direction were prepared from the bladder except bladder trigone (4-6 specimen from each bladder).
The prepared bladder muscle specimens were hung in a Magnus bath aerated with 95% O2-5% CO2 gas and filled with modified Krebs solution. The contraction tension was measured by an isometric strain transducer (TSD125C, Biopac systems, Santa Barbara, Calif., USA) and recorded in the hard disc of PC (ThinkCentre, IBM, USA) via an amplifier (DA100C, Biopac systems) and a multichannel data analysis apparatus (MP100A-CE, Biopac systems). For uptaking the data, a dedicated software (Acqknowledge 3.8.1., Biopac systems) was used and the sampling interval was set to 0.2 second (5 Hz). The specimens were hung with a load of about 1 g and, after an equilibration time of 1 hr or longer, the following experiment was performed.
The specimens were treated with phenylephrine (3 μmol/L) to induce contraction. After the contractile response was stabilized (>20 min), the specimens were cumulatively treated 3 times with a drug at a 10-fold common ratio and 30 min intervals, and the variation in the tension was observed.
The variation in the tension due to α1 receptor stimulation was evaluated by the two methods shown below [average method and standard deviation (Stddev) method].
The average tension for one minute was measured immediately before phenylephrine treatment and after the contraction was stabilized after the treatment (immediately before completion of about 20 min observation time), and the difference was taken as 100%. The average tension for one minute was measured immediately before completion of observation time (30 min) after treatment with a drug at each concentration, and the inhibition rate of the drug at each concentration was calculated. In the vehicle treatment group, the variation rate of phenylephrine-induced contraction was calculated every time the specimens were treated 3 times with lo the solvent, and the inhibition rate of the drug at each concentration was adjusted based on the variation rate of the corresponding vehicle treatment group. The concentration (IC50) necessary for inhibiting the average tension by 50% by preclinical package (SAS Institute Japan, Ver. 5.0) was calculated based on the inhibition rate at each concentration.
The standard deviation was measured immediately before phenylephrine treatment and for 5 min after the contraction was stabilized after treatment (immediately before completion of the about 20 min observation time) and the difference was taken as 100%. […]

[3] abbreviates: compound at 1 μM, [3H] prazosin 2.5 nM, membrane fraction 20 μg/well.

As for `C[C@H](c1ccccc1)n1cc(Cl)cc(C(N)=O)c1=N` [Example 168, 5-chloro-2-imino-1-[(1R)-1-phenylethyl]-1,2-dihydropyridine-3-carboxamide hydrochloride], the inhibition at 1 µM in experiment [1] (setting [3]) came out at 94.7%.

Take `COc1ccccc1N1CCN(CC(O)COc2cccc3ccccc23)CC1` (stereo not drawn) [Naftopidil]: in experiment [2], the negative-log IC50 (pIC50) was 5.82; the “effect on the rhythmic contractile response induced by phenylephrine (average method and Stddev method), in words” value (“effect … in words” for short) is on record as “inhibited”; the “Inhibitory effect on phenylephrine-induced contraction IC30 (stddev method)” value (from here on “Inhibitory effect”) is 3800 nM.

On to `N=c1c(C(N)=O)cc(Cl)cn1[C@@H]1CCc2ccccc21` [Example 169, 5-chloro-1-[(1R)-2,3-dihydro-1H-inden-1-yl]-2-imino-1,2-dihydropyridine-3-carboxamide hydrochloride], for which, in experiment [1] (setting [3]), the inhibition at 1 µM turned out to be 100%.

For the compound `N=c1c(C(N)=O)cc(Cl)cn1CC1CCCCC1` [Example 26, 5-chloro-1-(cyclohexylmethyl)-2-imino-1,2-dihydropyridine-3-carboxamide], the inhibition at 1 µM in experiment [1] (setting [3]) was found to be 75.7%.

Turning to `N=c1c(C(N)=O)cc(Cl)cn1C1CCc2ccccc21` (stereo not drawn) [Example 32, 5-chloro-1-(2,3-dihydro-1H-inden-1-yl)-2-imino-1,2-dihydropyridine-3-carboxamide], the inhibition at 1 µM in experiment [1] (setting [3]) is 93.9%.

With `N=c1c(C(N)=O)cc(Cl)cn1Cc1cccc(Cl)c1` [Example 19, 5-chloro-1-(3-chlorobenzyl)-2-imino-1,2-dihydropyridine-3-carboxamide], in experiment [1] (setting [3]), the inhibition at 1 µM worked out at 99.1%.

Consider `N=c1c(C(N)=O)cc(Cl)cn1CCc1ccccc1` [Example 23, 5-chloro-2-imino-1-(2-phenylethyl)-1,2-dihydropyridine-3-carboxamide], for which the inhibition at 1 µM in experiment [1] (setting [3]) was found to be 81.8%.

Regarding `N#Cc1cc(Cl)cc(Cn2cc(Cl)cc(C(N)=O)c2=N)c1` [Example 182, 5-chloro-1-(3-chloro-5-cyanobenzyl)-2-imino-1,2-dihydropyridine-3-carboxamide hydrobromide], the inhibition at 1 µM in experiment [1] (setting [3]) came to 99.2%.

For `COc1ccccc1N1CCN(CCN2C(=O)CC3(CCCC3)CC2=O)CC1` [BMY 7378], in experiment [2], the pIC50 is 6.57; the “effect … in words” value is recorded as “inhibited”; the “Inhibitory effect” value was determined as 89 nM.

With `N=c1c(C(N)=O)cc(Cl)cn1Cc1ccc(Cl)c(Cl)c1` [Example 20, 5-chloro-1-(3,4-dichlorobenzyl)-2-imino-1,2-dihydropyridine-3-carboxamide], the inhibition at 1 µM in experiment [1] (setting [3]) was determined as 100%.

Consider `N#Cc1cc(C(N)=O)c(=N)n(Cc2cccc(Cl)c2)c1` [Example 151, 1-(3-chlorobenzyl)-5-cyano-2-imino-1,2-dihydropyridine-3-carboxamide hydrobromide], for which the inhibition at 1 µM in experiment [1] is 69.5%.

For `N#Cc1cc(F)cc(Cn2cc(Cl)cc(C(N)=O)c2=N)c1` [Example 181, 5-chloro-1-(3-cyano-5-fluorobenzyl)-2-imino-1,2-dihydropyridine-3-carboxamide hydrobromide], in experiment [1] (setting [3]), the inhibition at 1 µM stood at 95.4%.

Turning to `N#Cc1ccc(F)c(Cn2cc(Cl)cc(C(N)=O)c2=N)c1` [Example 156, 5-chloro-1-(5-cyano-2-fluorobenzyl)-2-imino-1,2-dihydropyridine-3-carboxamide hydrobromide], in experiment [1] (setting [3]), the inhibition at 1 µM came to 91.8%.

As for `CCOc1ccccc1OCCN[C@H](C)Cc1ccc(OC)c(S(N)(=O)=O)c1` [Tamsulosin, tamsulosin], in experiment [2], the pIC50 is 7.47; the “effect … in words” value is on record as “inhibited”; the “Inhibitory effect” value turned out to be 9.4 nM.

On to `CS(=O)(=O)c1cc(Cl)ccc1Cn1cc(Cl)cc(C(N)=O)c1=N` [Example 149, 5-chloro-1-[4-chloro-2-(methylsulfonyl)benzyl]-2-imino-1,2-dihydropyridine-3-carboxamide hydrobromide], for which the inhibition at 1 µM in experiment [1] (setting [3]) is 96%.

What is called pIC50 is the negative decadic logarithm of the IC50, by convention in mol/L.
